Test system: G. pallida
Test: Test A: control of G. pallida by oxamyl on potted potato plants
Assay type: in vivo, Globodera pallida
Settings: serial small doses at 4-day, 7-day or 14-day intervals over the hatching period vs equivalent dose (3.5, 4.5 or 5.5 kg ai/ha) in one application at planting; 70 days; initial 10 or 50 eggs/g of soil; potato in pots
Source text: G. pallida is the more pernicious pest of potatoes. Studies have been conducted with Composition A comprising oxamyl as described above.
The test units consisted of large diameter pots each containing one potato plant, planted in soil amended with eggs of G. pallida at either 24 cysts per pot (estimated to be about 10 eggs/g of soil) or 120 cysts per pot (estimated to be about 50 eggs/g of soil). These pest burdens represent a level of infestation that would require treatment in order to prevent crop damage and potential multiplication of the pest (10 eggs/g of soil) and substantial yield loss (50 eggs/g of soil).
Composition A was introduced into the test units diluted in a constant volume of water. […] The dose at each application was applied in the same volume of water and in equal incremental quantities. […] The number of cysts attached to the roots per gram of root mass (washed free of soil) was determined at 70 days (10 weeks) after commencement of the trial. […]

CNC(=O)ON=C(SC)C(=O)N(C)C [oxamyl, N,N-dimethyl-2-methylcarbamoyloxyimino-2-(methylthio)acetamide]
control of cyst production by G. pallida (number of cysts attached to the roots per gram of root mass): superior control

From patent publication US20050096224A1 (priority 2002, published 2005)
